Measurements taken from article PMC9120017, “Inhibition mechanism of the chloride channel TMEM16A by the pore blocker 1PBC” (Nature Communications, 2022).
pIC50: −log10 of the molar value. Read-outs that look alike come from different tables or passages of the source.

Target: T1, mouse TMEM16A mutant N546A (Mus musculus, UniProt Q8BHY3, N546A)
T1 construct: expressed in transfected cells; host or cells: HEK293T
T1 sequence (Q8BHY3 1-960 N546A): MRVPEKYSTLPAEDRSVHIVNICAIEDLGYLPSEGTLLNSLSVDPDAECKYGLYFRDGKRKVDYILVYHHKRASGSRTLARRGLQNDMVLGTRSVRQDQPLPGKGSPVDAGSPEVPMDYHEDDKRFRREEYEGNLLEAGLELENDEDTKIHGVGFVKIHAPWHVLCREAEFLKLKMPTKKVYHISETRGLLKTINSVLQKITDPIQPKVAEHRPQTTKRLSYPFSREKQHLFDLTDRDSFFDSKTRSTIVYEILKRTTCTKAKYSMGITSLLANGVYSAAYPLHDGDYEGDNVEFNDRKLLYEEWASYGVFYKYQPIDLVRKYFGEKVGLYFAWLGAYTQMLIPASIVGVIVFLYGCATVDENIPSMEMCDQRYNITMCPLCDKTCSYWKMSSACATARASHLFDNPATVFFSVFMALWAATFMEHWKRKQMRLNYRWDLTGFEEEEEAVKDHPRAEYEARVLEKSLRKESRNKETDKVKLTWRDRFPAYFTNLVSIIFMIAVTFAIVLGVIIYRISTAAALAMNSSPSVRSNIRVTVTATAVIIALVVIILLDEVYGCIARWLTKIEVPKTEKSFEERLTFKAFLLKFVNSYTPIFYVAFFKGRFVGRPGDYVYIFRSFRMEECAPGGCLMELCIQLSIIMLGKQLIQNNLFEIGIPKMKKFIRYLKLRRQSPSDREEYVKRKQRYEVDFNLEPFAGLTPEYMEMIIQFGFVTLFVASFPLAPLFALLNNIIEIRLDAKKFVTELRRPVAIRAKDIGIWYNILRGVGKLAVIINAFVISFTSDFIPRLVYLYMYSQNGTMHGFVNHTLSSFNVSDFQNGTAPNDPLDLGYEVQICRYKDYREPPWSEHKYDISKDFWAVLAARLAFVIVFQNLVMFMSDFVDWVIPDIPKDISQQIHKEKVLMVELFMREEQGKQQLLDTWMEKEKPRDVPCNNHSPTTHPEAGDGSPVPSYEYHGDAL
Test: Inside-out patch recording of 1PBC block, mutant N546A
Type: cell-based
Settings: for remaining activity at 1 µM: 1PBC 1; for remaining activity at 1 µM / remaining activity at 3 µM / remaining activity at 10 µM: read-out: fraction of unblocked current; for remaining activity at 3 µM: 1PBC 3; for remaining activity at 10 µM: 1PBC 10
Procedure: HEK293T cells (ATCC CRL-1573) were maintained in Dulbecco’s modified Eagle’s medium (DMEM; Sigma-Aldrich) supplemented with 10 U ml^−1 penicillin, 0.1 mg ml^−1 streptomycin (Sigma-Aldrich), 2 mM L-glutamine (Sigma-Aldrich), and 10% FBS (Sigma-Aldrich) in a humidified atmosphere containing 5% CO2 at 37 °C. HEK293S GnTI^− cells (ATCC CRL-3022) were maintained in HyClone HyCell TransFx-H medium (GE Healthcare) supplemented with 10 U ml^−1 penicillin, 0.1 mg ml^−1 streptomycin, 4 mM L-glutamine, 0.15% poloxamer 188 (Sigma-Aldrich), and 1% FBS in an atmosphere containing 5% CO2 at 185 rpm at 37 °C. The ac splice variant of mouse TMEM16A (UniProt ID: Q8BHY3), mouse TMEM16B (UniProt ID: Q8CFW1), or mouse TMEM16F (UniProt ID: Q6P9J9) bearing a 3C cleavage site, a Venus YFP, a Myc tag, and a Streptavidin-binding peptide (SBP) downstream of the open reading frame in a modified pcDNA3.1 vector (Invitrogen) were used as described previously[21],[31]. Mutations were introduced using a modified QuikChange method[58] and were verified by sequencing.
HEK293T cells were transfected with 3–4 μg DNA per 6 cm Petri dish using the calcium phosphate co-precipitation method and were used within 24–96 h after transfection. Recordings were performed on inside-out patches excised from HEK293T cells expressing the construct of interest. Patch pipettes were pulled from borosilicate glass capillaries (O.D. 1.5 mm, I.D. 0.86 mm, Sutter Instrument) and were fire-polished with a microforge (Narishige) before use. Pipette resistance was typically 3–8 MΩ when filled with the recording solutions detailed below. Seal resistance was typically 4 GΩ or higher. Voltage-clamp recordings were made using Axopatch 200B, Digidata 1550, and Clampex 10.7 (Molecular Devices). Analog signals were filtered with the in-built 4-pole Bessel filter at 10 kHz and were digitized at 20 kHz. Solution exchange was achieved using a gravity-fed system through a theta glass pipette mounted on an ultra-fast piezo-driven stepper (Siskiyou). […] All recordings were performed at 20 °C.
A symmetrical ionic condition was used throughout. Stock solution with Ca^2+-EGTA contained 150 mM NaCl, 5.99 mM Ca(OH)2, 5 mM EGTA, and 10 mM HEPES at pH 7.40. Stock solution with EGTA contained 150 mM NaCl, 5 mM EGTA, and 10 mM HEPES at pH 7.40. Free Ca^2+ concentrations were adjusted by mixing the stock solutions at the required ratios calculated using the WEBMAXC program (http://web.stanford.edu/~cpatton/webmaxcS.htm). Patch pipettes were filled with the stock solution with Ca^2+-EGTA, which has a free Ca^2+ concentration of 1 mM. 1PBC (ChemBridge) stock was reconstituted in anhydrous DMSO (Sigma-Aldrich) at 100 mM and stored at −20 °C. Working solutions with 1PBC were prepared by serial dilution. Unless otherwise stated, experiments were performed at a saturating Ca^2+ concentration as shown in Supplementary Table 1 and the primary data were corrected for current rundown as described previously[21],[25].
Concentration-response relations, obtained from the ratio of the I-V plots before and after the application of the blocker, were fitted to the Hill equation,1 I/Imax=1/1+IC50/[blocker]^h where I/Imax is the normalized current responses, IC50 defines the concentration at which inhibition is at its half-maximum, and h is the Hill coefficient.

pIC50 (0 mV, 2 µM Ca2+): 6.23 | remaining activity at 1 µM (0 mV): 35.3% | remaining activity at 1 µM (20 mV): 28.4% | remaining activity at 1 µM (40 mV): 22% | remaining activity at 1 µM (60 mV): 19.8% | remaining activity at 1 µM (80 mV): 18.3% | remaining activity at 1 µM (100 mV): 19.3% | remaining activity at 1 µM (120 mV): 20.4% | remaining activity at 1 µM (140 mV): 24.4% | remaining activity at 1 µM (-20 mV): 42.1% | remaining activity at 1 µM (-40 mV): 47.5% | remaining activity at 1 µM (-60 mV): 55.1% | remaining activity at 1 µM (-80 mV): 60.7% | remaining activity at 1 µM (-100 mV): 65.9% | remaining activity at 1 µM (-120 mV): 69.4% | remaining activity at 1 µM (-140 mV): 71.9% | remaining activity at 3 µM (0 mV): 16.8% | remaining activity at 3 µM (20 mV): 12.7% | remaining activity at 3 µM (40 mV): 11% | remaining activity at 3 µM (60 mV): 8.55% | remaining activity at 3 µM (80 mV): 9.38% | remaining activity at 3 µM (100 mV): 9.83% | remaining activity at 3 µM (120 mV): 10.5% | remaining activity at 3 µM (140 mV): 17.6% | remaining activity at 3 µM (-20 mV): 20.8% | remaining activity at 3 µM (-40 mV): 25.6% | remaining activity at 3 µM (-60 mV): 31.9% | remaining activity at 3 µM (-80 mV): 36.9% | remaining activity at 3 µM (-100 mV): 42.7% | remaining activity at 3 µM (-120 mV): 48.5% | remaining activity at 3 µM (-140 mV): 51.2% | remaining activity at 10 µM (0 mV): 5.97% | remaining activity at 10 µM (20 mV): 5.12% | remaining activity at 10 µM (40 mV): 3.23% | remaining activity at 10 µM (60 mV): 3.5% | remaining activity at 10 µM (80 mV): 3.36% | remaining activity at 10 µM (100 mV): 5.03% | remaining activity at 10 µM (120 mV): 4.78% | remaining activity at 10 µM (140 mV): 10.2% | remaining activity at 10 µM (-20 mV): 6.81% | remaining activity at 10 µM (-40 mV): 10.2% | remaining activity at 10 µM (-60 mV): 13.2% | remaining activity at 10 µM (-80 mV): 16.4% | remaining activity at 10 µM (-100 mV): 19.7% | remaining activity at 10 µM (-120 mV): 24.7% | remaining activity at 10 µM (-140 mV): 27.4% | pIC50 (20 mV, 2 µM Ca2+): 6.37 | pIC50 (40 mV, 2 µM Ca2+): 6.49 | pIC50 (60 mV, 2 µM Ca2+): 6.57 | log-fold IC50 (change of mutant vs WT) (80 mV): -0.9263 | pIC50 (80 mV, 2 µM Ca2+): 6.62 | pIC50 (100 mV, 2 µM Ca2+): 6.63 | pIC50 (120 mV, 2 µM Ca2+): 6.62 | pIC50 (140 mV, 2 µM Ca2+): 6.50 | pIC50 (-20 mV, 2 µM Ca2+): 6.09 | pIC50 (-40 mV, 2 µM Ca2+): 5.99 | pIC50 (-60 mV, 2 µM Ca2+): 5.87 | pIC50 (-80 mV, 2 µM Ca2+): 5.76 | pIC50 (-100 mV, 2 µM Ca2+): 5.66 | pIC50 (-120 mV, 2 µM Ca2+): 5.56 | pIC50 (-140 mV, 2 µM Ca2+): 5.51 | pIC50 (N546A, V 0 mV): 6.23 | pIC50 (N546A, V 20 mV): 6.37 | pIC50 (N546A, V 40 mV): 6.49 | pIC50 (N546A, V 60 mV): 6.57 | pIC50 (N546A, V 80 mV): 6.62 | pIC50 (N546A, V 100 mV): 6.63 | pIC50 (N546A, V 120 mV): 6.62 | pIC50 (N546A, V 140 mV): 6.50 | pIC50 (N546A, V -20 mV): 6.09 | pIC50 (N546A, V -40 mV): 5.99 | pIC50 (N546A, V -60 mV): 5.86 | pIC50 (N546A, V -80 mV): 5.77 | pIC50 (N546A, V -100 mV): 5.66 | pIC50 (N546A, V -120 mV): 5.56 | pIC50 (N546A, V -140 mV): 5.51
SMILES: N#Cc1c(C(F)(F)F)cc(O)n2c1nc1ccccc12 [1PBC]
